In the experiment the test system is Radical scavenging activity. Nature of the experiment: Antioxidant activity assessed as DPPH radical scavenging activity by DPPH method. Format: functional. Set-up: concentration or dose not given beside the values.
Turning to `COc1ccc(/C=C/c2cc(=O)c3c(O)cccc3o2)cc1`, the Activity came to 71.1%.
The same measure for `C/C(=C\c1cc(=O)c2ccccc2o1)c1ccccc1`: 65.8%.
For the compound `COc1ccc(/C=C/c2cc(=O)c3cc(Br)ccc3o2)cc1`, the Activity was found to be 60.9%.
For `COc1ccc(/C=C/c2cc(=O)c3ccc(I)cc3o2)cc1`, the Activity turned out to be 66.8%.
As for `O=c1cc(/C=C/c2ccccc2)oc2cc(I)ccc12`, the Activity was found to be 65%.
The same measure for `COc1ccc(/C=C/c2cc(=O)c3cc(Cl)c(I)cc3o2)cc1`: 69.1%.
As to `C/C(=C\c1cc(=O)c2cc(Cl)c(I)cc2o1)c1ccccc1`, the Activity turned out to be 71.4%.
Regarding `O=c1cc(/C=C/c2ccccc2)oc2cc(I)c(Cl)cc12`, the Activity came to 67.2%.
Consider `O=c1cc(/C=C/c2ccccc2)oc2ccccc12`, for which the Activity stood at 64.4%.
For `C/C(=C\c1cc(=O)c2ccc(I)cc2o1)c1ccccc1`, the Activity was determined as 69.6%.

The values are drawn from ChEMBL document CHEMBL3046320, “Synthesis and evaluation of antioxidant activity of 2-styrylchromones” (Med Chem Res, 2013).
